In patent publication US20250145652A1, “INORGANIC SALTS OF NICOTINAMIDE MONONUCLEOTIDE AS ANTI-AGING AGENTS” (Life Biosciences Inc., priority 2018, published 2025):

Test system: COV434 cells
Experiment: NAD cell assay (NAD cycling method), cellular NAD+ levels
Format: cell-based, human
Conditions: NAD levels in COV434 cells, 200 uM, 4 hr; for Fold increase compared to NMN: normalised to protein; for Fold Increase compared to NMN on a molar basis: mole per mole comparison of salt and parent
Method: NAD levels were assayed based on the NAD cycling method of Zhu and Rand, PLoS One (2012), herein incorporated by reference. COV434 cells were maintained in 6 well plates and treated with the indicated compounds at a concentration of 200 uM for 4 hr. Media was removed, plates were washed in cold PBS and cells were scraped down in NAD extraction buffer containing 10 mM nicotinamide, 50 mM Tris HCl, 0.1% Triton X-100. Cells were homogenised by sonication for 5 seconds, and samples were centrifuged at 7,000 g for 5 min at 4 degrees. Aliquots were taken for later protein assay, and samples were then passed through 10 kDa amicon filters at 14,000 g, 30 min at 4 degrees to remove proteins from the sample. Each sample was measured in technical triplicate, with 25 μL sample added to 100 μL ADH cycling mix (0.2 mg/ml alcohol dehydrogenase enzyme, 2% ethanol, 100 mM Tris pH 8.5). Samples were allowed to cycle for 10 min at room temperature, followed by 50 μL addition of an MTT/PMS solution (0.1 mM phenazine methosulfate, 0.8 mM 3-(4,5-Dimethylthiazol-2-yl)-2,5-diphenyltetrazolium bromide), 100 mM Tris-HCl pH 8.5). Plates were then incubated for 15 min and absorbance was measured at 570 nm. NAD concentrations were extrapolated from a standard curve, and normalised to protein concentrations determined by BCA protein assay.
The fold increase is obtained through a direct comparison on a mole per mole between the compared salt and its parent counterpart.

SMILES | Fold increase compared to NMN | Fold Increase compared to NMN on a molar basis
NC(=O)c1ccc[n+]([C@@H]2O[C@H](COP(=O)([O-])[O-])[C@@H](O)[C@H]2O)c1.[Na+] [Compound I-001, Sodium ((2R,3S,4R,5R)-5-(3-carbamoylpyridin-1-ium-1-yl)-3,4-dihydroxytetrahydrofuran-2-yl)methyl phosphate] | 1.7 | 1.78
NC(=O)c1ccc[n+]([C@@H]2O[C@H](COP(=O)([O-])O)[C@@H](O)[C@H]2O)c1 [NMN, nicotinamide mononucleotide] | 1.0 | 1.0
